Experiments:
[1] = target: T1, human DNA polymerase β (hpol β) (Homo sapiens, UniProt P06746); assay: fluorescence-based polymerase inhibition assay; format: biochemical; conditions: 1 nM hpol β, 50 nM DNA, 100 μM dTTP, 25 °C; compounds tested from 1 μM to 120 μM; mean of triplicate; read-out: IC50 in inhibiting hpol β
Method: A fluorescence-based assay, as described previously, was used to determine the IC50 values for garcinoic acid and its homologs for human DNA polymerase β. DNA substrates were prepared as we reported previously. Briefly, a reporter strand conjugated with 5-carboxytetramethylrhodamine (TAMRA) and an unlabeled primer were annealed to a Black Hole Quencher (BHQ)-labelled template strand in a solution containing 10 mM Tris (pH 8.0) and 50 mM NaCl. The oligonucleotides were annealed in a 1:1.5:1.5 ratio for reporter, primer and template strand, respectively. The oligonucleotides were mixed and incubated for 3 min at 95 °C before cooling to room temperature.
The polymerase reaction was performed with 1 nM hpol β, 50 nM DNA, 100 μM dTTP and 2 mM MgCl2 in 50 mM Tris (pH 8.0) buffer containing 40 mM NaCl, 2 mM DTT and 0.01% (w/v) Tween 20. The reaction mix containing enzyme and dTTP were incubated for 5 min with the compound or DMSO in a 96-well plate before adding DNA to initiate the reaction. Polymerase reactions were performed at room temperature (25 °C). The plate was read continuously for one hour with a Synergy H4 plate reader (BioTek, λex = 525 nm, λem = 598 nm) (Winooski, VT, USA) after initiation of the reaction. The percent inhibition was calculated by dividing the rate of product formation at each compound concentration by the rate of product formation in DMSO control. The data was fit to a four-parameter logistic model with variable slope in Prism (San Diego, CA, USA) to calculate the IC50 values. The reactions were performed in triplicate and the mean IC50 value is reported with 95% confidence intervals.

[2] = target: T1, human DNA polymerase β (hpol β); set-up: method as in PMID 16146411; conditions: garcinoic acid analog with the dihydropyran ring opened; not in Table 2, no reference printed at the sentence; cited from earlier work

SMILES	IC50 [1]	hpol β inhibition activity (in words) [2]
COC(=O)/C(C)=C/CC/C(C)=C/CC[C@]1(C)CCc2cc(O)cc(C)c2O1 [Compound 13a, Methyl 9-[(R)-6-hydroxy-2,8-dimethylchroman-2-yl]-2,6-dimethylnona-2E,6E-dienoate]	> 120 µM	–
C/C(=C\CC/C(C)=C/CC[C@@](C)(O)CCc1cc(O)cc(C)c1O)CC/C=C(\C)C(=O)O [chrysochlamic acid]	–	lack of hpol β inhibition activity
C/C(=C\CC[C@]1(C)CCc2cc(O)cc(C)c2O1)CC/C=C/C(=O)O [Compound 10b, 9-[(R)-6-Hydroxy-2,8-dimethylchroman-2-yl]-6-methylnona-2E,6E-dienoic acid]	49 µM	–
C/C(=C\CC[C@]1(C)CCc2cc(O)cc(C)c2O1)C(=O)O [Compound 9a, 5-[(R)-6-Hydroxy-2,8-dimethylchroman-2-yl]-2-methylpent-2E-enoic acid]	> 120 µM	–
COc1cc(C)c2c(c1)CC[C@@](C)(CC/C=C(\C)CC/C=C(\C)CC/C=C(\C)C(=O)O)O2 [Compound 16, 13-[(R)-6-methoxy-2,8-dimethylchroman-2-yl]-2,6,10-trimethyltrideca-2E,6E,10E-trienoic Acid]	31 µM	–
COC(=O)/C(C)=C/CC/C(C)=C/CC/C(C)=C/CC[C@]1(C)CCc2cc(OC)cc(C)c2O1 [Compound 15, Methyl 13-[(R)-6-methoxy-2,8-dimethylchroman-2-yl]-2,6,10-trimethyltrideca-2E,6E,10E-trienoate]	> 120 µM	–
C/C(=C\CC/C(C)=C/CC[C@]1(C)CCc2cc(O)cc(C)c2O1)CC/C=C(\C)C(=O)O [Compound 1, 13-[(R)-6-Hydroxy-2,8-dimethylchroman-2-yl]-2,6,10-trimethyltrideca-2E,6E,10E-trienoic acid]	11 µM	–
COC(=O)/C(C)=C/CC[C@]1(C)CCc2cc(O)cc(C)c2O1 [Compound 12a, Methyl 5-[(R)-6-hydroxy-2,8-dimethylchroman-2-yl]-2-methylpent-2E-enoate]	> 120 µM	–

More lines, main results first:

IC50 [1]	SMILES	hpol β inhibition activity (in words) [2]
> 120 µM	COC(=O)/C=C/CC/C(C)=C/CC[C@]1(C)CCc2cc(O)cc(C)c2O1 [Compound 13b, Methyl 9-[(R)-6-hydroxy-2,8-dimethylchroman-2-yl]-6-methylnona-2E,6E-dienoate]	–
> 120 µM	COC(=O)/C=C/CC[C@]1(C)CCc2cc(O)cc(C)c2O1 [Compound 12b, Methyl 5-[(R)-6-hydroxy-2,8-dimethylchroman-2-yl]pent-2E-enoate]	–
52 µM	C/C(=C\CC[C@]1(C)CCc2cc(O)cc(C)c2O1)CC/C=C(\C)C(=O)O [Compound 10a, 9-[(R)-6-Hydroxy-2,8-dimethylchroman-2-yl]-2,6-dimethylnona-2E,6E-dienoic acid]	–
> 120 µM	Cc1cc(O)cc2c1O[C@](C)(CC/C=C/C(=O)O)CC2 [Compound 9b, 5-[(R)-6-Hydroxy-2,8-dimethylchroman-2-yl]pent-2E-enoic acid]	–
> 120 µM	COC(=O)/C(C)=C/CC/C(C)=C/CC/C(C)=C/CC[C@]1(C)CCc2cc(O)cc(C)c2O1 [Compound 14a, Methyl 13-[(R)-6-hydroxy-2,8-dimethylchroman-2-yl]-2,6,10-trimethyltrideca-2E,6E,10E-trienoate]	–
> 120 µM	COC(=O)/C=C/CC/C(C)=C/CC/C(C)=C/CC[C@]1(C)CCc2cc(O)cc(C)c2O1 [Compound 14b, Methyl 13-[(R)-6-hydroxy-2,8-dimethylchroman-2-yl]-6,10-dimethyltrideca-2E,6E,10E-trienoate]	–
23 µM	C/C(=C\CC/C(C)=C/CC[C@]1(C)CCc2cc(O)cc(C)c2O1)CC/C=C/C(=O)O [Compound 11, 13-[(R)-6-Hydroxy-2,8-dimethylchroman-2-yl]-6,10-dimethyltrideca-2E,6E,10E-trienoic acid]	–
